Among the data in US20100331297A1, “MODULATION OF PROTEIN TRAFFICKING” (FOLDRX PHARMACEUTICALS, INC., priority 2007, published 2010) are EC50 values, retold here.

T1 sequence (P13569 with tags, fused parts or gaps DEL508-508): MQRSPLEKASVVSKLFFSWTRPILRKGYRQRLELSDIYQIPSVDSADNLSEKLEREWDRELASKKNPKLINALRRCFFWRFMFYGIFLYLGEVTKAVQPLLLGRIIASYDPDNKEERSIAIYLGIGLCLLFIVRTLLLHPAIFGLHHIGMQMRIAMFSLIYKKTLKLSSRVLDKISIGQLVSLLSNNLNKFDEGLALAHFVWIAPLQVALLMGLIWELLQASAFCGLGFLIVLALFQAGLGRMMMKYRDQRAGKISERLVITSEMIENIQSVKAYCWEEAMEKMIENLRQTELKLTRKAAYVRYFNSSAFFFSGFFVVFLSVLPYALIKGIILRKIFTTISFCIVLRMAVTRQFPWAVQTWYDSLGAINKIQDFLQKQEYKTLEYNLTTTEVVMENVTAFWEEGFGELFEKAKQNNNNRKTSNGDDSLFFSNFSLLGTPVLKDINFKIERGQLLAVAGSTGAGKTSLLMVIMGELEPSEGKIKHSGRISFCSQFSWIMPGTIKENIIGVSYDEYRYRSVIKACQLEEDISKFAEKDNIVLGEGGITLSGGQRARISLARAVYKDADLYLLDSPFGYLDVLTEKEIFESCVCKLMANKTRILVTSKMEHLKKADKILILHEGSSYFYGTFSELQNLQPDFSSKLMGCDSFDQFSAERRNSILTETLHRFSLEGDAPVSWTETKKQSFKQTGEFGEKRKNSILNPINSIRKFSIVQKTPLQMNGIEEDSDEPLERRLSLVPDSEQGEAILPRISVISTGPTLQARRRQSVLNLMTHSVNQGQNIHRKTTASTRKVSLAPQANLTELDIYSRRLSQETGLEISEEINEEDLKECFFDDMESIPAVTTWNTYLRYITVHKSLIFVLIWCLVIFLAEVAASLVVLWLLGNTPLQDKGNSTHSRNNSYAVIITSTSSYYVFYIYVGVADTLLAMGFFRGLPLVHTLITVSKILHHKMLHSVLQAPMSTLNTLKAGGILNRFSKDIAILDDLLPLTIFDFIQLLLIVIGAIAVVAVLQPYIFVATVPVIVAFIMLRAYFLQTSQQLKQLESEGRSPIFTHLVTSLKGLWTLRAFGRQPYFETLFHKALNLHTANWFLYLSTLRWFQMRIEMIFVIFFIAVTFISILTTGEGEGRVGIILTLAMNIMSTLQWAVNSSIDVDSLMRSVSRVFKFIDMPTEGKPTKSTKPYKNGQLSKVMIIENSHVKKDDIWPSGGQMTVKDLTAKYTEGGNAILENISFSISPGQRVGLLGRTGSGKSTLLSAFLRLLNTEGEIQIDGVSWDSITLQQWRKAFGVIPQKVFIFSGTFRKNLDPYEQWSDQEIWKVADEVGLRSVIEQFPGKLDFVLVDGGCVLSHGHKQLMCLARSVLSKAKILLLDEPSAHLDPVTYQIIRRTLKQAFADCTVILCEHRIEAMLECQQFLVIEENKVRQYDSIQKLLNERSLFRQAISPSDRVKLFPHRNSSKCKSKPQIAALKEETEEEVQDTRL

The first experiment has as its target T1, ΔF508 CFTR (Homo sapiens, UniProt P13569, DEL508-508). Kind of experiment: Potentiator activity, YFP halide (iodide) quenching assay in FRT cells expressing ΔF508 CFTR, 27° C. pre-incubation. Also on record: expressed in transfected cells; host or cells: Fischer rat thyroid (FRT) cells. Format: cell-based. The note with it: FRT cells ΔF508 CFTR/YFP, 24 hours at 27° C., compound with forskolin 30 min. The protocol:
Fisher rat thyroid (FRT) cells stably expressing ΔF508 CFTR and a halide-sensitive variant of yellow fluorescent protein (YFP) were seeded into microtiter plates and allowed to grow for 24 hours at 37° C. and 5% CO2, as described above. The medium was replaced with fresh medium and the cells were incubated for a further 24 hours at 27° C. and 5% CO2 to increase the level of mutant CFTR at the cell surface.
Compounds in DMSO solution were pre-diluted into phosphate-buffered saline solution (PBS) containing forskolin. Activity of CFTR was assayed by removing the medium, washing the cell monolayer with PBS, and then applying the compounds diluted in PBS containing forskolin. After 30 min of incubation at 37° C., the plates were placed in a fluorescence plate reader equipped with a reagent injector. After measuring an initial fluorescence value, iodide-containing buffer was injected and the decrease in fluorescence was followed at excitation and emission wavelengths of 485 and 530 nm, respectively.
Potentiator activity was calculated as follows. Normalized endpoint fluorescence was calculated by dividing the endpoint fluorescence after iodide injection by the initial fluorescence reading and multiplication by 100. Potentiator EC50 values were calculated by the same method as corrector EC50 values.
The EC50 is the concentration needed to bring the measured effect to its halfway point. With `Cc1ccc(-c2nn(C(C)(C)C)c3ncnc(NC(=O)c4ccccc4Cl)c23)cc1` [compound 99], the EC50 lay in the range of 2 to 5 µM. Still for that read-out and setting: for `C=CCn1cc(-c2ccc(Cl)cc2)c2c(N)ncnc21` [compound 311] the value was 5 to 10 µM; for `CCn1nc(Nc2cccc3ccccc23)c2c(N)ncnc21` [compound 308], > 15 µM; for `CCC(C)Cn1cc(-c2ccc(Cl)cc2)c2c(N)ncnc21` (stereo not drawn) [compound 289], 2 to 5 µM. On to `CCn1nc(Sc2cccc(OC)c2)c2c(N)ncnc21` [compound 280], for which the EC50 was > 15 µM. Still for that read-out and setting: next, `Cc1ccc(F)c(Oc2nn(C(C)(C)C)c3ncnc(N)c23)c1` [compound 206]: > 15 µM; `Nc1ncnc2c1c(-c1ccc(Cl)cc1)cn2Cc1ccccc1` [compound 327]: < 2 µM. Same read-out and setting: next, `CC(=O)N1CCC(n2nc(-c3ccc(Cl)cc3)c3c(N)ncnc32)CC1` [compound 302]: > 15 µM; `CCn1nc(Sc2ccccn2)c2c(N)ncnc21` [compound 324]: > 15 µM.

In the case of `CC(C)N1CCC(n2nc(-c3ccc(Cl)cc3)c3c(N)ncnc32)CC1` [compound 342], the concentration giving a half-maximal response (EC50) is > 15 µM.

Another experiment has as its target T1, ΔF508 CFTR. Kind of experiment: Corrector activity, YFP halide (iodide) quenching assay in FRT cells expressing ΔF508 CFTR. Format: cell-based. The arrangement: expressed in transfected cells; host or cells: Fischer rat thyroid (FRT) cells. The note with it: FRT cells ΔF508 CFTR/YFP, 24 hours with compound at 37° C., forskolin and genistein; read-out: Corrector EC50. The protocol: Fisher rat thyroid (FRT) cells stably expressing ΔF508 CFTR and a halide-sensitive variant of yellow fluorescent protein (YFP) were seeded into microtiter plates and allowed to grow for 24 hours at 37° C. and 5% CO2. See Pedemonte et al., J. Clin. Invest. […] Compounds in dimethylsulfoxide (DMSO) solution were pre-diluted into cell culture medium, the medium was removed from cells, and then fresh medium containing the compounds was applied. The cells were incubated for a further 24 hours at 37° C. and 5% CO2.
Activity of CFTR was assayed by removing the medium, washing the cell monolayer with phosphate-buffered saline solution (PBS), and then applying PBS containing forskolin and genistein. After 30 min incubation at 37° C., the plates were placed in a fluorescence plate reader equipped with a reagent injector.
Corrector activity was calculated as follows. Normalized endpoint fluorescence was calculated by dividing the endpoint fluorescence after iodide injection by the initial fluorescence reading and multiplication by 100. Corrector EC50 values were calculated from the activity vs. concentration data using a 4-parameter log fit. The bottom of the curve was constrained to zero activity (DMSO control) while the slope, EC50, and top of the curve were fitted to the data. The EC50 was determined as the concentration that corresponds to the inflection point of the fitted curve.
On to `Cc1ccc(-c2nn(C(C)(C)C)c3ncnc(NC(=O)c4ccccc4Cl)c23)cc1` [compound 99], for which the EC50 was > 15 µM. Same read-out and setting: next, `C=CCn1cc(-c2ccc(Cl)cc2)c2c(N)ncnc21` [compound 311]: 2 to 5 µM; `CCn1nc(Nc2cccc3ccccc23)c2c(N)ncnc21` [compound 308]: 5 to 10 µM; `CCC(C)Cn1cc(-c2ccc(Cl)cc2)c2c(N)ncnc21` (stereo not drawn) [compound 289]: 5 to 10 µM. On the same count and under the same terms, for `CCn1nc(Sc2cccc(OC)c2)c2c(N)ncnc21` [compound 280] the value was > 15 µM; for `Cc1ccc(F)c(Oc2nn(C(C)(C)C)c3ncnc(N)c23)c1` [compound 206], > 15 µM; for `Nc1ncnc2c1c(-c1ccc(Cl)cc1)cn2Cc1ccccc1` [compound 327], > 15 µM.

`CC(=O)N1CCC(n2nc(-c3ccc(Cl)cc3)c3c(N)ncnc32)CC1` [compound 302]: the EC50 was < 2 µM. Still for that read-out and setting: next, `CCn1nc(Sc2ccccn2)c2c(N)ncnc21` [compound 324]: > 15 µM. On the same count and under the same terms, for `CC(C)N1CCC(n2nc(-c3ccc(Cl)cc3)c3c(N)ncnc32)CC1` [compound 342] the value was > 15 µM. As for `Nc1ncnc2c1c(Sc1cccc(Cl)c1)nn2C1CNC1` [compound 415], the EC50 is > 15 µM.

Take `CC(C)(C)n1nc(Br)c2c(NC(=O)c3ccccc3)ncnc21` [compound 421]: the EC50 is 2 to 5 µM. On the same count and under the same terms, for `CCn1nc(Sc2ccc(C)cc2)c2c(N)ncnc21` [compound 255] the value was > 15 µM; for `CC(C)(C)C1N=C(c2ccc(Cl)cc2)c2c(NC(=O)C3CCC3)ncnc21` (stereo not drawn) [compound 192], 2 to 5 µM; for `CN1CCC(C(=O)Nc2ncnc3c2c(-c2ccc(Cl)cc2)cn3C(C)(C)C)C1` (stereo not drawn) [compound 375], < 2 µM. With `CC(C)(C)n1cc(-c2ccc(Cl)cc2)c2c(NC(=O)C3CCCO3)ncnc21` (stereo not drawn) [compound 373], the EC50 fell in the range of 5 to 10 µM. The same measure, in the same setting: next, `CC(C)(C)OC(=O)N1CCC(n2nc(Oc3ccccc3)c3c(N)ncnc32)CC1` [compound 362]: > 15 µM.

In the case of `Nc1ncnc2c1c(-c1ccc(Cl)cc1)nn2CCc1ccccc1` [compound 243], the EC50 is > 15 µM. The same measure, in the same setting: next, `CC(C)(C)n1nc(-c2ccc(Cl)cc2)c2c(NC(=O)C3CC3)ncnc21` [compound 396]: 5 to 10 µM.

As to `CC(=O)N(C(C)=O)c1ncnc2c1c(-c1ccc(F)cc1)nn2C(C)(C)C` [compound 117, N-Acetyl-N-[1-tert-butyl-3-(4-fluoro-phenyl)-1H-pyrazolo[3,4-d]pyrimidin-4-yl]-acetamide], the EC50 is > 15 µM. Still for that read-out and setting: next, `Cc1ccc(-c2nn(-c3ncccn3)c3ncnc(N)c23)cc1` [Compound No. 229, 1-Pyrimidin-2-yl-3-p-tolyl-1H-pyrazolo[3,4-d]pyrimidin-4-ylamine]: > 15 µM. The same measure, in the same setting: next, `Cc1ccc(-c2nn(C(C)(C)C)c3ncnc(Nc4ncccn4)c23)cc1` [Compound No. 234, (1-tert-Butyl-3-p-tolyl-1H-pyrazolo[3,4-d]pyrimidin-4-yl)-pyrimidin-2-yl-amine]: > 15 µM; `CCn1c(C)c(-c2ccc(Cl)cc2)c2c(NC(=O)C(C)C)ncnc21` [compound 364]: < 2 µM; `CCC(=O)Nc1ncnc2c1c(-c1cccc(Cl)c1)cn2C(C)(C)C` [compound 368]: 5 to 10 µM. The same measure, in the same setting: next, `Nc1ncnc2c1c(-c1ccc(Cl)cc1)nn2C(=O)Nc1ccccc1` [compound 214]: > 15 µM. Regarding `CC(=O)N1CC(n2nc([S+]([O-])c3ccccc3)c3c(N)ncnc32)C1` (stereo not drawn) [compound 404], the EC50 is > 15 µM. Take `CC(C)C(=O)C(=O)Nc1ncnc2c1c(-c1ccc(Cl)cc1)nn2C(C)(C)C` [compound 394]: the EC50 was > 15 µM.

For the molecule `CC(C)C(=O)Nc1ncnc2c1c(Oc1cccc(Cl)c1)nn2C(C)(C)C` [compound 369], the EC50 lay in the range of 2 to 5 µM. Still for that read-out and setting: for `Nc1ncnc2c1c(Oc1cccc(Cl)c1)nn2C1CNC1` [compound 414] the value was > 15 µM. The same measure, in the same setting: next, `CNC(=S)Nc1ncnc2c1c(-c1ccc(Cl)cc1)nn2C(C)(C)C` [Compound No. 397, 1-[1-tert-Butyl-3-(4-chloro-phenyl)-1H-pyrazolo[3,4-d]pyrimidin-4-yl]-3-methyl-thiourea]: > 15 µM. On the same count and under the same terms, for `CCC(=O)Nc1ncnc2c1c(Oc1cccc(Cl)c1)nn2C(C)(C)C` [compound 339] the value was 5 to 10 µM; for `CCn1nc(Sc2cccc(F)c2)c2c(N)ncnc21` [compound 219], 2 to 5 µM.

As for `CC(C)(C)n1nc(Br)c2c(N(C(=O)c3ccccc3)C(=O)c3ccccc3)ncnc21` [compound 425], the EC50 fell in the range of 2 to 5 µM. For `CC(C)(C)n1nc(-c2ccc(Cl)cc2)c2c(Nc3ncccn3)ncnc21` [compound 235], the EC50 is > 15 µM. As for `CCOC(=O)N1CCC(n2nc(Oc3ccccc3)c3c(N)ncnc32)CC1` [compound 386], the EC50 was > 15 µM. The same measure, in the same setting: for `CC(C)N1CC(n2nc(Sc3ccccc3)c3c(N)ncnc32)C1` [compound 384] the value was > 15 µM. Consider `CC(=O)N1CCC(n2nc(Oc3ccccc3)c3c(N)ncnc32)CC1` [compound 420], for which the EC50 was > 15 µM. On the same count and under the same terms, next, `CC(=O)Nc1ncnc2c1c(-c1ccc(Cl)cc1)cn2C(C)(C)C` [compound 372]: 2 to 5 µM; `CC(C)C(=O)Nc1ncnc2c1c(-c1ccc(Cl)cc1)cn2C(C)(C)C` [compound 337]: < 2 µM. Same read-out and setting: next, `Nc1ncnc2c1c(Oc1ccccc1)nn2C1CCNCC1` [compound 417]: > 15 µM; `CC(C)(C)n1cc(-c2ccc(Cl)cc2)c2c(NC(=O)C3CCOC3)ncnc21` (stereo not drawn) [compound 374]: < 2 µM; `CCOC(=O)N1CC(n2nc(Oc3cccc(Cl)c3)c3c(N)ncnc32)C1` [compound 403]: > 15 µM. For `CC(C)(C)C(=O)Nc1ncnc2c1c(Oc1cccc(Cl)c1)nn2C(C)(C)C` [compound 377], the EC50 was > 15 µM. The same measure, in the same setting: next, `CN1CC[C@H](n2nc(-c3ccc(Cl)cc3)c3c(N)ncnc32)C1` [compound 379]: > 15 µM; `CCn1nc(N(C)c2ccccc2)c2c(N)ncnc21` [Compound No. 248, 1-Ethyl-N^3-methyl-N^3-phenyl-1H-pyrazolo[3,4-d]pyrimidine-3,4-diamine]: > 15 µM. For `CCn1nc(Sc2cccc(O)c2)c2c(N)ncnc21` [compound 250], the EC50 is > 15 µM. Still for that read-out and setting: next, `CC(C)(C)n1nc(Oc2nccc3ccccc23)c2c(N)ncnc21` [compound 370, 1-tert-Butyl-3-(isoquinolin-1-yloxy)-1H-pyrazolo[3,4-d]pyrimidin-4-ylamine]: > 15 µM; `CC(C)(C)n1nc(-c2ccc(Cl)cc2)c2c(NC(=O)N3CCCC3)ncnc21` [compound 398]: > 15 µM. On to `CCNC(=O)N1CC(n2nc(Sc3ccccc3)c3c(N)ncnc32)C1` [compound 348], for which the EC50 was > 15 µM. On the same count and under the same terms, next, `CCn1c(C)c(-c2ccc(Cl)cc2)c2c(N)ncnc21` [compound 401]: 2 to 5 µM; `CN1CC(n2nc(Sc3ccccc3)c3c(N)ncnc32)C1` [compound 383]: > 15 µM. Same read-out and setting: for `CCNC(=O)N1CC(n2nc([S+]([O-])c3ccccc3)c3c(N)ncnc32)C1` (stereo not drawn) [compound 419] the value was > 15 µM; for `Nc1ncnc2c1c(Oc1cccc(Cl)c1)nn2C1CCOC1` (stereo not drawn) [compound 358], > 15 µM. `CC1CCC(n2nc(-c3ccc(Cl)cc3)c3c(N)ncnc32)CC1` (stereo not drawn) [compound 361]: the EC50 is > 15 µM. On the same count and under the same terms, next, `CN1CCC(C(=O)Nc2ncnc3c2c(-c2ccc(Cl)cc2)nn3C(C)(C)C)C1` (stereo not drawn) [compound 363]: > 15 µM; `CC(C)(C)n1cc(-c2ccc(Cl)cc2)c2c(NC(=O)N3CCCC3)ncnc21` [compound 399]: > 15 µM.
